# Measured values taken from ChEMBL document CHEMBL1201862, “PubChem BioAssay data set” (2004).
# Active and inactive are the calls of the source.
# Key:
# BJ [1] = experiment: cells; format: functional, cell-based; details: Homo sapiens
# [2] = Luminescence-based dose response cell-based high throughput screening assay for cytotoxic compounds using the IEC-6 intestinal epithelial cell line. [Related pubchem assays: 1858 (Summary AID.), 1825 (Counterscreen.), 1907 (Confirmation screen.)]; format: functional
# BJ [3] = experiment: BJ-TERT-LT-ST fibroblast viability loss – cell-based, RAS-independent, luminescence, dose response (AID 1935); format: functional; details: Homo sapiens;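 note: BJ fibroblasts immortalized with TERT plus LT and ST oncogenes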
# BJ [4] = experiment: BJ-TERT fibroblast viability loss – cell-based, RAS-independent, luminescence, dose response (AID 1933); format: functional; details: Homo sapiens
# [5] = microbe, parasite or virus in culture; format: functional; details: Mycobacterium tuberculosis
# [6] = DRD fibroblast viability loss – cell-based, non-viral oncogenic, luminescence, dose response (AID 1934); format: functional; details: Homo sapiens
# BJ [7] = experiment: growth inhibition of engineered Ras-driven BJ cells – cell-based, alamar blue fluorescence, cherrypicked samples, dose response (AID 2631); format: functional; details: Homo sapiens;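 note: confirmatory dose-response assay in RAS-dependent BJ fibroblasts engineered with TERT, LT and ST, with cytotoxicity read by fluorescence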
# [8] = molecular target: Heat shock protein HSP 90-alpha (Homo sapiens, UniProt P07900); format: functional, organism-based
# Escherichia coli [9] = experiment: microbe, parasite or virus in culture
# Vero = experiment: mammalian cell viability reduction – secondary assay, cytotoxicity control for West Nile virus antiviral project, dose response (AID 1650); format: functional; details: Chlorocebus sabaeus
# [10] = molecular target: T1, Type-1 angiotensin II receptor (Homo sapiens, UniProt P30556); experiment: antagonism of angiotensin II type 1 receptor – cell-based, uHTS hits, selectivity assay for APJ receptor antagonist project, dose response (AID 463214); format: functional;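 note: antagonist potency against angiotensin II stimulated AT1 response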
# T1 sequence (P30556 whole entry): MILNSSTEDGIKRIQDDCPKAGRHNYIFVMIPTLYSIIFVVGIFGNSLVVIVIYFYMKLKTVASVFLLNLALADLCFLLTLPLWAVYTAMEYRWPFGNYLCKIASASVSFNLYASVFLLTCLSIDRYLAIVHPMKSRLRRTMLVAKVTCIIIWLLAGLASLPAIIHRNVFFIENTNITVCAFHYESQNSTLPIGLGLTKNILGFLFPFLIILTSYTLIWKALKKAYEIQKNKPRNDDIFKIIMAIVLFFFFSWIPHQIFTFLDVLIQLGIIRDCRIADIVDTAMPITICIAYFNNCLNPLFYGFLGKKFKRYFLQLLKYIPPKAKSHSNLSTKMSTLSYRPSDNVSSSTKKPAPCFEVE
# Beta-galactosidase = Beta-galactosidase (Escherichia coli, UniProt Q8VNN2); experiment: PubChem AID 485352; format: functional
# Escherichia coli [11] = experiment: microbe, parasite or virus in culture; remark: listed apart in the source
# [12] = molecular target: Serine/threonine-protein phosphatase (Homo sapiens, UniProt Q9BPW0); experiment: inhibition of protein phosphatase 5 activity – biochemical, fluorescence, dose response (AID 2395)
# [13] = molecular target: Serine/threonine-protein phosphatase PP1-alpha catalytic subunit (Homo sapiens, UniProt P62136); experiment: inhibition of protein phosphatase 1 activity – biochemical, fluorescence, dose response (AID 2394)
# H4 = experiment: Luminescence Cell-Based Dose Response HTS to Identify Activators of 5'UTR Stem-Loop Driven Prion Protein mRNA Translation in H4 Neuroglioblastoma Cells. [Related pubchem assays: 1829 (Project Summary), 1814 (Primary HTS)]; format: functional; details: Homo sapiens
# [14] = Luminescence Cell-Based Dose Response HTS to Identify Activators of Luciferase Translation or Activity in H4 […] Cells. [Related pubchem assays: 1829 (Project Summary), 1814 (Primary HTS)]; format: functional
# [15] = Luminescence Cell-Based Dose Confirmation to Identify Activators of 5'UTR Stem-Loop Driven Alpha-Synuclein mRNA Translation in H4 Neuroglioblastoma Cells. [Related pubchem assays: 1829 (Project Summary), 1814 (Primary HTS)]; format: functional
# [16] = Luminescence Cell-Based Dose Response to Identify Activators of Luciferase Translation or Activity in H4-C Neuroglioblastoma Cells. [Related pubchem assays: 1829 (Project Summary), 1814 (Primary HTS)]; format: functional
# [17] = Luminescence Cell-Based Dose Response to Identify Activators of 5'UTR Stem-Loop Driven Prion Protein mRNA Translation in H4-C Neuroglioblastoma Cells. [Related pubchem assays: 1829 (Project Summary), 1814 (Primary HTS)]; format: functional
# [18] = molecular target: Nuclear receptor subfamily 5 group A member 2 (Homo sapiens, UniProt O00482); format: functional, cell-based;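 note: HEK293T cells transfected with LRH-1 and a StAR promoter luciferase reporter; potency for inhibitors that lower LRH-1 driven reporter light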
# [19] = mitochondrial function rescue without frataxin homolog – Friedreich's ataxia, plus single-dose screen, dose response (AID 1465); format: functional;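 note: yeast depleted of Yfh1p frataxin homolog grown on glycerol needing respiration; WST-1 tetrazolium dye reduction as measure of cellular dehydrogenase metabolic activity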
# Steroidogenic factor 1 = Steroidogenic factor 1 (Homo sapiens, UniProt Q13285); experiment: Counterscreen for inverse agonists of the liver receptor homolog-1 (LRH-1; NR5A2): Luminescence-based cell-based high throughput dose response assay to identify inverse agonists of the Steroidogenic Factor 1 Nuclear Receptor (SF1; NR5A1).; format: functional
# [20] = nonselective StAR promoter luciferase inhibitors – cell-based, luminescence, luciferase reporter, counter-screen for LRH-1 inverse agonist project, dose response (AID 651969); format: functional
# [21] = molecular target: T2, Mannose-6-phosphate isomerase (Homo sapiens, UniProt P34949); experiment: MPI inhibition at elevated mannose 6-phosphate – biochemical, fluorescence intensity, high mannose 6-phosphate, primary screen (AID 1220)
# T2 sequence (P34949 whole entry): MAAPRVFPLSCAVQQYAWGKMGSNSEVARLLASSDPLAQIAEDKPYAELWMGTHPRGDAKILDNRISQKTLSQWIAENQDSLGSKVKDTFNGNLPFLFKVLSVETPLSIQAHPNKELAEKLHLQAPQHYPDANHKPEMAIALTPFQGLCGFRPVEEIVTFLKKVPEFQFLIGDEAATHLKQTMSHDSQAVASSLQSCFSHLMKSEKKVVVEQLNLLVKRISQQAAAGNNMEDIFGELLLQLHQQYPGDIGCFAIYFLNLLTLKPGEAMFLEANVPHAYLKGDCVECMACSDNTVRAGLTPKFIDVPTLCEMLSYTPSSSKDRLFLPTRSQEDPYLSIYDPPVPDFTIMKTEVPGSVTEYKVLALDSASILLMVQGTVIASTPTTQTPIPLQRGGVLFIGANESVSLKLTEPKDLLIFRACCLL
# Genome polyprotein [22] = molecular target: Genome polyprotein (dengue virus type 2, UniProt P29990); experiment: flavivirus cap methylation enzyme inhibition – biochemical, confirmation dose response, primary screen (AID 588689); format: functional
# [23] = molecular target: Ras and Rab interactor 1/Tyrosine-protein kinase ABL1 (Homo sapiens, UniProt P00519+Q13671); format: functional;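 note: biochemical TR-FRET dose-response test measuring inhibition of binding between Rin1 and Abl proteins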
# [24] = molecular target: T2, Mannose-6-phosphate isomerase; experiment: MPI enzyme activity inhibition – biochemical, fluorescence intensity, coupled assay, primary screen (AID 1209)
# [25] = NIH3T3 cell viability loss – ATP luminescence, mouse fibroblasts, counter-screen, dose response (AID 2010); format: functional, cell-based;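 note: cells exposed to compound for about 90 hours before reading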
# Bcl-2-like protein 1 = Bcl-2-like protein 1 (Homo sapiens, UniProt Q07817); experiment: blockers of BCLXL peptide binding – biochemical, fluorescence polarization, 1536-well, selectivity assay for MCL1 inhibitor project, dose response (AID 2218)
# [26] = molecular target: Latent membrane protein 1 (Human herpesvirus 4 (strain B95-8), UniProt P03230); experiment: LMP1 TES1 pathway selectivity over dsRED control – imaging, HEK293T, dual-color eGFP/dsRED, cherry-picks, selectivity assay for LMP1 NF-kB inhibitor project, dose response (AID 588398); format: functional, cell-based
# [27] = Trypanosoma cruzi growth suppression in host cells – NIH3T3 host cells, beta-gal luminescence, confirmation (AID 2044); format: functional, cell-based;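 note: intracellular parasites grown in NIH/3T3 mouse fibroblasts as host cells; luminescent beta-galactosidase reporter signal from transgenic T. cruzi replicating inside host cells; inhibitors lower the luminescence signal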
# HEK293 [28] = experiment: EBV LMP1 TES2 canonical NF-kB signalling blockers – cell-based, HEK293, luciferase, cherry-pick, dose response (AID 588343); format: functional; details: Homo sapiens
# [29] = molecular target: Induced myeloid leukemia cell differentiation protein Mcl-1 (Homo sapiens, UniProt Q07820); experiment: blockers of MCL1 binding to BIM peptide – biochemical, fluorescence polarization, BIM-BH3 peptide, 1536-well, dose response (AID 2217)
# cells [30] = format: functional, cell-based
# cells [31] = format: functional, cell-based; remark: listed apart in the source
# HEK293 [32] = experiment: cells; format: functional, cell-based; details: Homo sapiens
# [33] = MIN6 cell viability loss – mouse insulinoma, cytotoxicity control, dose response (AID 2122); format: functional;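 note: confirmatory high-throughput counterscreen run to flag cytotoxic compounds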
# HEK293 [34] = experiment: inhibition of NOD1-driven NF-kB reporter – cell-based, luminescence, uHTS, primary screen (AID 1578); format: functional; details: Homo sapiens
# HEK293 [35] = experiment: cells; format: functional, cell-based; details: Homo sapiens; remark: listed apart in the source
# Genome polyprotein [36] = molecular target: Genome polyprotein (Hepatitis C virus, UniProt Q2Q167); experiment: disruption of hepatitis C core self-association – biochemical, TR-FRET, dose response (AID 2159); design: species or system Hepacivirus hominis;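 note: blocks dimerization of HCV core protein measured by TR-FRET between tagged core106 pairs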
# [37] = tested on: Streptococcus sp. 'group A'; experiment: Streptococcus pyogenes SK(-)GAS viability under kanamycin – luminescence, BacTiterGlo, confirmation, counter-screen for streptokinase expression inhibitor project, dose response (AID 1900); format: functional, organism-based
# HEK293 [38] = experiment: NOD2 signaling inhibitors in MDP-stimulated cells, cell-based, uHTS, luminescence (AID 2001); format: functional; details: Homo sapiens
# [39] = decrease of insulin promoter-GFP reporter – imaging, high-content screening, mouse beta cells (AID 1628); format: functional; details: MIN6
# Streptococcus = experiment: GAS UMAA2166 growth inhibition – luminescence, BacTiterGlo, counter-screen for streptokinase expression inhibitor project, dose response (AID 1915); format: functional, organism-based;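 note: potency for reduction of bacterial viability or growth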
# Chain of Latent membrane protein 1 (P03230 whole entry): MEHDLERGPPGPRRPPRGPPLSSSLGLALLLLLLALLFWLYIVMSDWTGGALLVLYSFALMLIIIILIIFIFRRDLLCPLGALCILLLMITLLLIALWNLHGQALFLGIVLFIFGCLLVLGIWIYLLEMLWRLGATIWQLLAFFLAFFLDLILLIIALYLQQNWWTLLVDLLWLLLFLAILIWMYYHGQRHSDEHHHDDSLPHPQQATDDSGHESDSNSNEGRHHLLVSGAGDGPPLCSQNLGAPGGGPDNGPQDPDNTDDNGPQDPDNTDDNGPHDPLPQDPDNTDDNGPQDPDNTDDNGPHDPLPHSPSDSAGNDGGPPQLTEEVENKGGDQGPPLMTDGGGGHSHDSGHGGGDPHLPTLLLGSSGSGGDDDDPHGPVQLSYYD
# Chain of Ras and Rab interactor 1/Tyrosine-protein kinase ABL1 (P00519 whole entry): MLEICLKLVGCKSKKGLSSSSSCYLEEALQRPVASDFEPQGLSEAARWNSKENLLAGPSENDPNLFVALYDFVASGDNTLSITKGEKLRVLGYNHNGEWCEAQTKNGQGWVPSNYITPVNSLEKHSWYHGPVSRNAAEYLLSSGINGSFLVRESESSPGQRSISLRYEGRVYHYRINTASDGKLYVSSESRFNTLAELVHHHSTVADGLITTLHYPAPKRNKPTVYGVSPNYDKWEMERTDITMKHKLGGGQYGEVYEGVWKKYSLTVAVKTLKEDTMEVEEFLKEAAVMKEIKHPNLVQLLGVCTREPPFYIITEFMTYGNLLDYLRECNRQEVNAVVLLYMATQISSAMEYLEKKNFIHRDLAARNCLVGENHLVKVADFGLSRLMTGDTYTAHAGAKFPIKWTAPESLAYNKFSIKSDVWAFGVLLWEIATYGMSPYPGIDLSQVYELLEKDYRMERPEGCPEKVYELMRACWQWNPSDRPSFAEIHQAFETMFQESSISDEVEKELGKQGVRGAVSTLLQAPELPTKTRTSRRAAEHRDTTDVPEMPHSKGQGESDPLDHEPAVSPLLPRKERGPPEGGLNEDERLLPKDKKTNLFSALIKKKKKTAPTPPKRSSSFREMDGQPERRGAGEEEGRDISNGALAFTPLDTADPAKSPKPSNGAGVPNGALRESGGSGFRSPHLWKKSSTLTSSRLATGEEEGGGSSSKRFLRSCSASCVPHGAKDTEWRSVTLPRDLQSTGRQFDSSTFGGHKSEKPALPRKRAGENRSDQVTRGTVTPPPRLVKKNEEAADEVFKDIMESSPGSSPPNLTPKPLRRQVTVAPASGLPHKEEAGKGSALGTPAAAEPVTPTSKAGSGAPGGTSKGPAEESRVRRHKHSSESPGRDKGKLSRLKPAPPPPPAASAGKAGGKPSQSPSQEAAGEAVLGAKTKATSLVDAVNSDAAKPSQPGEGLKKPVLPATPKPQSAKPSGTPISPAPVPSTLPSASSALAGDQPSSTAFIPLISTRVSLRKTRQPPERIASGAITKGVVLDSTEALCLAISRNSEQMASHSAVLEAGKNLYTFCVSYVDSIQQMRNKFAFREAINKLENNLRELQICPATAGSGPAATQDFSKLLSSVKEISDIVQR
# Chain of Ras and Rab interactor 1/Tyrosine-protein kinase ABL1 (Q13671 whole entry): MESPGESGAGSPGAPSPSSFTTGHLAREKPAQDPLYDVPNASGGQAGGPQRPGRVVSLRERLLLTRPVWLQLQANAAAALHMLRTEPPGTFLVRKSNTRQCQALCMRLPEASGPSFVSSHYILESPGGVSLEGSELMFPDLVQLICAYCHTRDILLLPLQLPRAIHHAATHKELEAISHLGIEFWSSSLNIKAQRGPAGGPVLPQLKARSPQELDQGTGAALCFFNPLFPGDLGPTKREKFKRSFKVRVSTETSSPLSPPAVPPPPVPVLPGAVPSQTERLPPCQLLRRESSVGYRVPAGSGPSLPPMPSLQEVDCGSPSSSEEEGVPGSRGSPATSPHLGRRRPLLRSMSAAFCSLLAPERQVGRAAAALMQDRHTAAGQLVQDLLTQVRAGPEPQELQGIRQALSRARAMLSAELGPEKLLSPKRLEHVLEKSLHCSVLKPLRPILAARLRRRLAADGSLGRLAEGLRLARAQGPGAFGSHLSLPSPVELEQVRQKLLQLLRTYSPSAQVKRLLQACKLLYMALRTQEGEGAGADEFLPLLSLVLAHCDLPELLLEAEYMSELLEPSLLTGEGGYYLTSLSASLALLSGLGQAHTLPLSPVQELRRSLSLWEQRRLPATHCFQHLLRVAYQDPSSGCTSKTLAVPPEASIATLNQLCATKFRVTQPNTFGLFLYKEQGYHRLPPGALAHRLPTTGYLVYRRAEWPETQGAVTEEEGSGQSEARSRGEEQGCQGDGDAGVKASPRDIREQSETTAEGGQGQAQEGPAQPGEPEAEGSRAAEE
# Chain of Beta-galactosidase (Q8VNN2 whole entry): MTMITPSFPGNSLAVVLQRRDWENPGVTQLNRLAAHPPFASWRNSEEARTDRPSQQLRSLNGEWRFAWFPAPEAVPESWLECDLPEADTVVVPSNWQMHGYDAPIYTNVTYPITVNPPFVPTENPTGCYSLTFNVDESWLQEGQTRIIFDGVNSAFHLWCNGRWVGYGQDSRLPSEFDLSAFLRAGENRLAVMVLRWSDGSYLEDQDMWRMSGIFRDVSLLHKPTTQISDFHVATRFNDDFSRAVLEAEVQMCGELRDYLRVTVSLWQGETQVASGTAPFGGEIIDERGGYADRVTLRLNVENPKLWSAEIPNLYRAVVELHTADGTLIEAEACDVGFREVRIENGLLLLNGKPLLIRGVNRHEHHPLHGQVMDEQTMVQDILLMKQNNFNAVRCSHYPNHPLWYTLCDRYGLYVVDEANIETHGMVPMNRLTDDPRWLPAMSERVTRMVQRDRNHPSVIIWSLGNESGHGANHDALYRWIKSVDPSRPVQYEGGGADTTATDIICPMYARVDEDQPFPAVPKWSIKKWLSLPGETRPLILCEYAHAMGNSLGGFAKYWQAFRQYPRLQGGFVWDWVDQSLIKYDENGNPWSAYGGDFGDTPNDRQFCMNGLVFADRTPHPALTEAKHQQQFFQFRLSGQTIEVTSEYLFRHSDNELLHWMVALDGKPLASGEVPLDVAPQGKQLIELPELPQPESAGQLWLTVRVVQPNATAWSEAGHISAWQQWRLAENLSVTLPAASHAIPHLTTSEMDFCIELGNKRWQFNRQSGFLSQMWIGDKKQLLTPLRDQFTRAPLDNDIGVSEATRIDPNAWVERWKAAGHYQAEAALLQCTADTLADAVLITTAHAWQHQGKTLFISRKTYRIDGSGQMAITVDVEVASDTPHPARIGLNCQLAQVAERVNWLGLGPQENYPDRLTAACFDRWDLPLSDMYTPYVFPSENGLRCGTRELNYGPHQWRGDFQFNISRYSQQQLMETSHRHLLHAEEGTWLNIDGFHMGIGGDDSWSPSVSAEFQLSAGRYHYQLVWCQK
# Chain of Bcl-2-like protein 1 (Q07817 whole entry): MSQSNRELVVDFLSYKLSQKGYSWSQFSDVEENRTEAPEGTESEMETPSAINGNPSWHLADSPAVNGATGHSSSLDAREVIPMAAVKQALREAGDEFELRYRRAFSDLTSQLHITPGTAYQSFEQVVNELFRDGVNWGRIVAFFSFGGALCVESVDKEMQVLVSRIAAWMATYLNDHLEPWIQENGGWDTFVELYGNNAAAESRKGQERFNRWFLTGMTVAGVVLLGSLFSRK
# Chain of Steroidogenic factor 1 (Q13285 whole entry): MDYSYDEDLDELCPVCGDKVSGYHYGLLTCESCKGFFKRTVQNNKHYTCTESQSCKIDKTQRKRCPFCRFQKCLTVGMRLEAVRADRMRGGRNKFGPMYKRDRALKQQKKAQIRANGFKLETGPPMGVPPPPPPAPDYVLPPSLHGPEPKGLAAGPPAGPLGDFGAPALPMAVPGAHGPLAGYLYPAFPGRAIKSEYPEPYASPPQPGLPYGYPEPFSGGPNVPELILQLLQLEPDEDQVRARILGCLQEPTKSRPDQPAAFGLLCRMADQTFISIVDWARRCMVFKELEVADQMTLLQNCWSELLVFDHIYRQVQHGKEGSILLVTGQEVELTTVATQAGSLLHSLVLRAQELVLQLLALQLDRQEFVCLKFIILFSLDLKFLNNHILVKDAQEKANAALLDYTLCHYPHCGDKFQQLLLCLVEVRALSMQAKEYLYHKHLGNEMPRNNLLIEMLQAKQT
# Chain of Nuclear receptor subfamily 5 group A member 2 (O00482 whole entry): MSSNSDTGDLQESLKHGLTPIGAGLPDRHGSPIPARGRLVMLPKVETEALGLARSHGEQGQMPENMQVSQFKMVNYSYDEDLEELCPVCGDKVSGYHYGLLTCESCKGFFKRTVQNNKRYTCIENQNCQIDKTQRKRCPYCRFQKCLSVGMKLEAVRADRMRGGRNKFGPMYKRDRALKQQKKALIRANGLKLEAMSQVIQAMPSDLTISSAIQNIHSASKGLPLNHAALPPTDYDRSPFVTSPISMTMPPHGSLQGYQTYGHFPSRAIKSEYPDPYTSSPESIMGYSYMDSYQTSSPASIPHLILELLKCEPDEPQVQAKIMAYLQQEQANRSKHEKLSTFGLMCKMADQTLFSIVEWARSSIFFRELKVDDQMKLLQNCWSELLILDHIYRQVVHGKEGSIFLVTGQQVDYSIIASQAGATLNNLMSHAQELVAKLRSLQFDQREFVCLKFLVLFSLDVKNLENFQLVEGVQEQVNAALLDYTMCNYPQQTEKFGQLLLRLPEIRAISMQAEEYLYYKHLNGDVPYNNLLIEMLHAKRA
# Chain of Serine/threonine-protein phosphatase (Q9BPW0 whole entry): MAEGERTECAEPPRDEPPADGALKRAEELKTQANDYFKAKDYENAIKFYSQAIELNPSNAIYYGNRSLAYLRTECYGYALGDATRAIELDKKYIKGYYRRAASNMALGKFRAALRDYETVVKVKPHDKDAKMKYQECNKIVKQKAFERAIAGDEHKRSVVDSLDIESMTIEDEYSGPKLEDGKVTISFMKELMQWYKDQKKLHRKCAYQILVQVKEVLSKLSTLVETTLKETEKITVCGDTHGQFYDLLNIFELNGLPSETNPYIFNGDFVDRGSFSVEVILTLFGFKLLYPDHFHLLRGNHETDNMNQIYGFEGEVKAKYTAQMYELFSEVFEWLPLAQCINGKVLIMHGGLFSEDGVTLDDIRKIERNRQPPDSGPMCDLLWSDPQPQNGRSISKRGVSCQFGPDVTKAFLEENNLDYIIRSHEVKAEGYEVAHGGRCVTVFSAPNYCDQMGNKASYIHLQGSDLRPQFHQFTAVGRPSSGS
smiles,measurement,setting,value
Cc1ccc(C(=O)Sc2cccccc2=O)cc1,EC50,BJ [1],26 µM (active)
same,IC50,[2],0.848 µM (active)
same,EC50,BJ [3],54.9 µM (active)
same,EC50,BJ [4],0.659 µM (inconclusive)
same,CC50,[5],11.5 µM (active)
same,EC50,[6],25.5 µM (active)
same,EC50,BJ [7],0.075 µM (active)
same,AC50,[8],6.06 µM (active)
same,AC50,Escherichia coli [9],12.7 µM (active)
same,CC50,Vero,48.4 µM (active)
same,IC50,[10],< 1.25 µM (active)
same,EC50,Beta-galactosidase,> 40 µM (inactive)
same,AC50,Escherichia coli [11],17 µM (active)
COCCNC(=O)c1c(N)n(CCC(C)C)c2nc3ccccc3nc12,IC50,[12],13.4 µM (not active)
same,IC50,[13],56.5 µM (not active)
CC(=O)Nc1ccc2c(c1)ncn2-c1ccccc1,EC50,H4,> 120 µM (not active)
same,EC50,[14],< 0.1 µM (inconclusive)
same,EC50,[15],0.218 µM (active)
same,EC50,[16],0.46 µM (active)
same,EC50,[17],0.608 µM (active)
CC1CCCN(c2cc(N(C)CCO)c([N+](=O)[O-])c3nonc23)C1 (stereo not given),IC50,[18],12.3 µM (inactive)
same,EC50,[19],> 100 µM (active)
same,IC50,Steroidogenic factor 1,7.01 µM (active)
same,IC50,[20],35.9 µM (inactive)
Oc1ccc(/C=N/N2CCOCC2)c(O)c1O,IC50,[21],10.3 µM (active)
same,IC50,Genome polyprotein [22],45 µM (active)
same,IC50,[23],> 73.5 µM (inactive)
same,IC50,[24],11.6 µM (active)
Nc1ccc(C(=O)N/N=C\c2cc(N=Nc3cccc4ccccc34)ccc2O)cc1,EC50,[25],7.41 µM (active)
same,IC50,Bcl-2-like protein 1,> 109 µM (not active)
same,AC50,[26],30.2 µM (active)
same,EC50,[27],1.12 µM (active)
same,AC50,HEK293 [28],11.1 µM (active)
same,IC50,[29],6.83 µM (active)
same,EC50,cells [30],> 350 µM (not active)
same,EC50,cells [31],7.62 µM (active)
CC(C)=CCc1c(O)cc2oc3c(CC=C(C)C)c(O)c(O)c(CC=C(C)C)c3c(=O)c2c1O [GARCINONE E],IC50,HEK293 [32],> 20 µM (inactive)
same,IC50,[33],3.46 µM (active)
same,EC50,HEK293 [34],4.78 µM (active)
same,IC50,HEK293 [35],6.77 µM (active)
same,IC50,Genome polyprotein [36],> 49.8 µM (not active)
same,EC50,[37],0.813 µM (active)
same,IC50,HEK293 [38],4.65 µM (inactive)
same,IC50,[39],2.79 µM (active)
same,EC50,Streptococcus,3.02 µM (active)
